Assays:
[1] = target: T1, Cholecystokinin receptor type A (Cavia porcellus, UniProt Q63931); assay: Tested for inhibition of [3H]-pCCK-8 specific binding to cholecystokinin type A receptor in guinea pig pancreatic membranes; assay type: cell membranes
T1 sequence (Q63931 whole entry): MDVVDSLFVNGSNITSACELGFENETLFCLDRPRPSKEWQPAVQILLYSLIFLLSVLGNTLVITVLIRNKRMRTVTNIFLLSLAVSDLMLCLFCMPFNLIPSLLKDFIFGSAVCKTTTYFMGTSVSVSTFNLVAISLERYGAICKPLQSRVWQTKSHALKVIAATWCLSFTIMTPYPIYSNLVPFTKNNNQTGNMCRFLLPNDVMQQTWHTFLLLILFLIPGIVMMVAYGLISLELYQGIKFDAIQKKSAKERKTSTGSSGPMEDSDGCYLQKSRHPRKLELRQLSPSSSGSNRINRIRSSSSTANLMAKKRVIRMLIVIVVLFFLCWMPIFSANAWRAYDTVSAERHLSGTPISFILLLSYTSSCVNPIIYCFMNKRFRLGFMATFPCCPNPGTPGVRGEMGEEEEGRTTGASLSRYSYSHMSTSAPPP

[2] = target: T2, Cholecystokinin receptor type A (Rattus norvegicus, UniProt P30551); assay: Tested for binding affinity towards cholecystokinin type A receptor in rat pancreas by displacement of [3H]pCCK-8 radioligand
T2 sequence (P30551 whole entry): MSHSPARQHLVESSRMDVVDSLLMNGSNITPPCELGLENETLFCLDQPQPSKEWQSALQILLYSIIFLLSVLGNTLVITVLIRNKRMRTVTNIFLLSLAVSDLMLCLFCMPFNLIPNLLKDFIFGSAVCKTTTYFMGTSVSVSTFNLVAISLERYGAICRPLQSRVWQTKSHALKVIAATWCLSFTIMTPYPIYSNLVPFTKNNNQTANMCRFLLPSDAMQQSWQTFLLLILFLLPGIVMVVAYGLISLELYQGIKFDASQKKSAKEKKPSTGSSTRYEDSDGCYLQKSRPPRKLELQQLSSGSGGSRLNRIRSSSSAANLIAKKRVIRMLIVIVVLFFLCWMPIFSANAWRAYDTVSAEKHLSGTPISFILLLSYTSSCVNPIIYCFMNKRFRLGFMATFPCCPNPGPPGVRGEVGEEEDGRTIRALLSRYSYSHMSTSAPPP

[3] = target: T3, Gastrin/cholecystokinin type B receptor (Mus musculus, UniProt P56481); assay: Tested for binding affinity towards cholecystokinin type B receptor in mouse brain by displacement of [3H]pBC264 radioligand (icv); assay type: tissue-based
T3 sequence (P56481 whole entry): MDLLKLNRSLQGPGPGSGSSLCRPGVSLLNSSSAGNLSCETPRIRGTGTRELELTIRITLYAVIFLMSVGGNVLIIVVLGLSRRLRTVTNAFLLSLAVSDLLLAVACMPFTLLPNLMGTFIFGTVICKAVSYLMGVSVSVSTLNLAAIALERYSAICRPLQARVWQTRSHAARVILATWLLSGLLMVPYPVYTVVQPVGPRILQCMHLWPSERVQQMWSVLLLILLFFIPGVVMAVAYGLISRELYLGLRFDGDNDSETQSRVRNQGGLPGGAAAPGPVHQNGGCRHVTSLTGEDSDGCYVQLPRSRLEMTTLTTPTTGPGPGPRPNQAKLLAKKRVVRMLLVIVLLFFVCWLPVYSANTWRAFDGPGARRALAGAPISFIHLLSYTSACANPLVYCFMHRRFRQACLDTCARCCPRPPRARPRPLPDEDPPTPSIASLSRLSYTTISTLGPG

[4] = target: T4, Gastrin/cholecystokinin type B receptor (Rattus norvegicus, UniProt P30553); assay: Tested for binding affinity towards cholecystokinin type B receptor in rat […] by displacement of [3H]pCCK-8 radioligand
T4 sequence (P30553 whole entry): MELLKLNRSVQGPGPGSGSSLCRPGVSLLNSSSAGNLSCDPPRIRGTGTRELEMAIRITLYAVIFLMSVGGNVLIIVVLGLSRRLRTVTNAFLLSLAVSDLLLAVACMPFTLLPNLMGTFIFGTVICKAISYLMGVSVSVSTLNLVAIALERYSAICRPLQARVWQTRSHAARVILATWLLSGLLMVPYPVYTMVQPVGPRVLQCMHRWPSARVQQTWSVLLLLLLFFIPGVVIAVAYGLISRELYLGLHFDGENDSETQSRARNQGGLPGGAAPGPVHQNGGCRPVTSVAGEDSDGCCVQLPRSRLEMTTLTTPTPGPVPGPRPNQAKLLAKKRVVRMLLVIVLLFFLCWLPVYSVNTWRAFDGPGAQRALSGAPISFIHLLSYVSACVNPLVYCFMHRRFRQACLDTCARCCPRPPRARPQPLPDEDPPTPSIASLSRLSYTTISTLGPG

Structure (SMILES)	Ki [1]	further results
CC(Cc1c[nH]c2ccccc12)(NC(=O)OC1[C@H]2C[C@@H]3C[C@@H](C[C@H]1C3)C2)C(=O)Nc1ccccc1 (stereo partly drawn)	6.08 µM	
CC(Cc1c[nH]c2ccccc12)(C(=O)OC1[C@H]2C[C@@H]3C[C@@H](C[C@H]1C3)C2)C(=O)N(CCc1ccc(Cl)cc1Cl)CC(=O)O (stereo partly drawn)	3.05 µM	Ki [2]: 1.22 µM; Ki [3]: 0.014 µM; Ki [4]: 0.028 µM
CC(Cc1ccccc1)(NC(=O)OC1[C@H]2C[C@@H]3C[C@@H](C[C@H]1C3)C2)C(=O)N(CCc1ccccc1)CC(=O)O (stereo partly drawn)	3.8 µM	
CC(Cc1c[nH]c2ccccc12)(NC(=O)Nc1ccc(Cl)cc1)C(=O)NCCc1ccccc1 (stereo not drawn)	6.33 µM	
CC(Cc1c[nH]c2ccccc12)(NC(=O)OC1[C@H]2C[C@@H]3C[C@@H](C[C@H]1C3)C2)C(=O)NCCc1ccc(Cl)cc1Cl (stereo partly drawn)	3.16 µM	
CC(Cc1ccc(Br)cc1)(NC(=O)OC1[C@H]2C[C@@H]3C[C@@H](C[C@H]1C3)C2)C(=O)N(CCc1ccccc1)CC(=O)O (stereo partly drawn)	3.41 µM	
COc1ccc(CCNC(=O)C(C)(Cc2c[nH]c3ccccc23)NC(=O)OC2[C@H]3C[C@@H]4C[C@@H](C[C@H]2C4)C3)cc1 (stereo partly drawn)	3.12 µM	
CC(Cc1c[nH]c2ccccc12)(NC(=O)OC1[C@H]2C[C@@H]3C[C@@H](C[C@H]1C3)C2)C(=O)NCCc1cccc2ccccc12 (stereo partly drawn)	2.37 µM	
O=C(O)CN(CCc1ccccc1)C(=O)C(Cc1c[nH]c2ccccc12)NC(=O)OC1[C@H]2C[C@@H]3C[C@@H](C[C@H]1C3)C2 (stereo partly drawn)	2.84 µM	
CC(Cc1c[nH]c2ccccc12)(NC(=O)OC1[C@H]2C[C@@H]3C[C@@H](C[C@H]1C3)C2)C(=O)NCCCc1ccccc1 (stereo partly drawn)	4.25 µM	
CC(Cc1c[nH]c2ccccc12)(NC(=O)OC1[C@H]2C[C@@H]3C[C@@H](C[C@H]1C3)C2)C(=O)NCC(=O)O (stereo partly drawn)	> 4 µM	
CC(Cc1c[nH]c2ccccc12)(NC(=O)OC1[C@H]2C[C@@H]3C[C@@H](C[C@H]1C3)C2)C(=O)NCc1ccccc1 (stereo partly drawn)	4.1 µM	

Further compounds by falling Ki [1], results first:

Ki [1]	Structure (SMILES)	further results
2.36 µM	CC(Cc1c[nH]c2ccccc12)(NC(=O)OC1[C@H]2C[C@@H]3C[C@@H](C[C@H]1C3)C2)C(=O)Nc1ccc2ccccc2c1 (stereo partly drawn)	
2.35 µM	CC(Cc1c[nH]c2ccccc12)(NC(=O)OC1[C@H]2C[C@@H]3C[C@@H](C[C@H]1C3)C2)C(=O)NCCc1ccc([N+](=O)[O-])cc1 (stereo partly drawn)	
2.14 µM	CC(Cc1c[nH]c2ccccc12)(NC(=O)OC1[C@H]2C[C@@H]3C[C@@H](C[C@H]1C3)C2)C(=O)NCCc1ccc(Br)cc1 (stereo partly drawn)	
2.01 µM	CC(Cc1cccc2ccccc12)(NC(=O)OC1[C@H]2C[C@@H]3C[C@@H](C[C@H]1C3)C2)C(=O)N(CCc1ccccc1)CC(=O)O (stereo partly drawn)	
1.89 µM	CC(Cc1c[nH]c2ccccc12)(NC(=O)OC1[C@H]2C[C@@H]3C[C@@H](C[C@H]1C3)C2)C(=O)NCCc1ccccc1 (stereo partly drawn)	
1.78 µM	CC(Cc1c[nH]c2ccccc12)(NC(=O)NC(c1ccccc1)(c1ccccc1)c1ccccc1)C(=O)NCCc1ccccc1 (stereo not drawn)	
1.61 µM	CC(Cc1c[nH]c2ccccc12)(NC(=O)OC1[C@H]2C[C@@H]3C[C@@H](C[C@H]1C3)C2)C(=O)NCCc1ccc(Cl)cc1 (stereo partly drawn)	
1.54 µM	CC(Cc1c[nH]c2ccccc12)(NC(=O)OC1[C@H]2C[C@@H]3C[C@@H](C[C@H]1C3)C2)C(=O)NCCc1ccc(Cl)c(Cl)c1 (stereo partly drawn)	
1.52 µM	CC(Cc1c[nH]c2ccccc12)(NC(=O)OC1[C@H]2C[C@@H]3C[C@@H](C[C@H]1C3)C2)C(=O)N(CCc1ccccc1)CC(=O)O (stereo partly drawn)	Ki [2]: 0.531 µM
1.32 µM	CC(Cc1c[nH]c2ccccc12)(NC(=O)OC1[C@H]2C[C@@H]3C[C@@H](C[C@H]1C3)C2)C(=O)N(CCC(=O)O)CCc1ccccc1 (stereo partly drawn)	
1.13 µM	CC(Cc1c[nH]c2ccccc12)(NC(=O)OC1[C@H]2C[C@@H]3C[C@@H](C[C@H]1C3)C2)C(=O)N(CCc1ccc(Cl)cc1)CC(=O)O (stereo in doubt; 26)	Ki [2]: 1.36 µM
1.06 µM	CC(Cc1c[nH]c2ccccc12)(NC(=O)OC1[C@H]2C[C@@H]3C[C@@H](C[C@H]1C3)C2)C(=O)N(CCc1ccc(Cl)cc1)CC(=O)O (stereo in doubt; 26A)	Ki [2]: 1.23 µM
1.04 µM	CC(Cc1c[nH]c2ccccc12)(NC(=O)OC1[C@H]2C[C@@H]3C[C@@H](C[C@H]1C3)C2)C(=O)N(CCc1ccc(Cl)cc1Cl)CC(=O)O (stereo partly drawn)	
0.769 µM	CC(Cc1c[nH]c2ccccc12)(NC(=O)Nc1ccc2ccccc2c1)C(=O)NCCc1ccccc1 (stereo not drawn)	
0.07 µM	CC(Cc1ccc2ccccc2c1)(NC(=O)OC1[C@H]2C[C@@H]3C[C@@H](C[C@H]1C3)C2)C(=O)N(CCc1ccccc1)CC(=O)O (stereo partly drawn)	
